From ChEMBL document CHEMBL1201862, “PubChem BioAssay data set” (2004)
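Protocol summary: plate cells (96-well), add compound at 5 concentrations, incubate 48 h, interpolate endpoints linearly. GI50 = concentration required for 50% inhibition of growth.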 The source made the active and inactive calls. No stated cut-off is given here; in the data, active = GI50 up to about 1.1 µM and inactive = higher.

How the values were obtained:
Test in all cases: inhibition of tumour cell growth, NCI panel, 48 h
NCI/ADR-RES = test system: NCI/ADR-RES
UACC-257 = test system: UACC-257
SW-620 = test system: SW-620
M14 = test system: M14
ACHN = test system: ACHN
SF-268 = test system: SF-268
HOP-62 = test system: HOP-62
SNB-75 = test system: SNB-75
SF-295 = test system: SF-295
NCI-H226 = test system: NCI-H226
TK-10 = test system: TK-10
OVCAR-3 = test system: OVCAR-3
Hs-578T = test system: Hs-578T
NCI-H522 = test system: NCI-H522
U-251 = test system: U-251
MOLT-4 = test system: MOLT-4
KM12 = test system: KM12
CCRF-CEM = test system: CCRF-CEM
BT-549 = test system: BT-549
SK-MEL-28 = test system: SK-MEL-28

SMILES	GI50 (NCI/ADR-RES)	GI50 (UACC-257)	GI50 (SW-620)	GI50 (M14)	GI50 (ACHN)	GI50 (SF-268)	GI50 (HOP-62)	GI50 (SNB-75)	GI50 (SF-295)	GI50 (NCI-H226)	GI50 (TK-10)	GI50 (OVCAR-3)	GI50 (Hs-578T)	GI50 (NCI-H522)	GI50 (U-251)	GI50 (MOLT-4)	GI50 (KM12)	GI50 (CCRF-CEM)	GI50 (BT-549)	GI50 (SK-MEL-28)
COc1cc([C@@H]2c3cc4c(c(O)c3C[C@H]3COC(=O)[C@@H]32)OCO4)cc(OC)c1O	0.0231 µM (active)	< 0.02 µM (active)	< 0.02 µM (active)	0.00278 µM (active)	0.00631 µM (active)	< 0.02 µM (active)	< 0.02 µM (active)	25.4 µM (inactive)	< 0.02 µM (active)	< 0.02 µM (active)	0.00762 µM (active)	–	–	–	–	–	–	–	–	–
O=C1[C@H](O)[C@@H]2CCC[C@@]23CCCN13	> 100 µM (inactive)	> 100 µM (inactive)	> 100 µM (inactive)	> 100 µM (inactive)	> 100 µM (inactive)	> 100 µM (inactive)	> 100 µM (inactive)	> 100 µM (inactive)	> 100 µM (inactive)	> 100 µM (inactive)	> 100 µM (inactive)	> 100 µM (inactive)	> 100 µM (inactive)	> 100 µM (inactive)	> 100 µM (inactive)	> 100 µM (inactive)	> 100 µM (inactive)	94.4 µM (inactive)	–	–
c1ccc2c(c1)SCCCSCCCS2	> 100 µM (inactive)	> 100 µM (inactive)	> 100 µM (inactive)	> 100 µM (inactive)	–	> 100 µM (inactive)	> 100 µM (inactive)	> 100 µM (inactive)	> 100 µM (inactive)	–	> 100 µM (inactive)	> 100 µM (inactive)	–	> 100 µM (inactive)	> 100 µM (inactive)	67.6 µM (inactive)	> 100 µM (inactive)	> 100 µM (inactive)	> 100 µM (inactive)	> 100 µM (inactive)
CC(=O)/C(=C/N1CC(=O)NC1=S)C(=O)Nc1ccccc1C	> 100 µM (inactive)	> 100 µM (inactive)	> 100 µM (inactive)	> 100 µM (inactive)	> 100 µM (inactive)	> 100 µM (inactive)	> 100 µM (inactive)	> 100 µM (inactive)	> 100 µM (inactive)	> 10 µM (inactive)	> 100 µM (inactive)	> 100 µM (inactive)	–	–	> 100 µM (inactive)	> 100 µM (inactive)	> 100 µM (inactive)	–	> 100 µM (inactive)	> 100 µM (inactive)
CC(=O)[C@H]1[C@@H](OCc2ccccc2)O[N+]([O-])=C(C)[C@@H]1c1ccccc1	39.1 µM (inactive)	34.7 µM (inactive)	17.4 µM (inactive)	36.1 µM (inactive)	26.4 µM (inactive)	37.2 µM (inactive)	> 100 µM (inactive)	> 100 µM (inactive)	75.2 µM (inactive)	52.1 µM (inactive)	56.1 µM (inactive)	24.7 µM (inactive)	19.9 µM (inactive)	13.1 µM (inactive)	44.5 µM (inactive)	17.2 µM (inactive)	37.4 µM (inactive)	14.9 µM (inactive)	–	27.2 µM (inactive)
B.CC(=O)OC1CN2CCC1CC2 (stereo not given)	> 100 µM (inactive)	–	> 100 µM (inactive)	> 100 µM (inactive)	> 100 µM (inactive)	> 100 µM (inactive)	> 100 µM (inactive)	–	> 100 µM (inactive)	> 100 µM (inactive)	> 100 µM (inactive)	> 100 µM (inactive)	> 100 µM (inactive)	–	> 100 µM (inactive)	> 100 µM (inactive)	> 100 µM (inactive)	> 100 µM (inactive)	–	> 100 µM (inactive)
CC1CCCCN1CC(=O)c1ccc2c(c1)Sc1ccccc1O2 (stereo not given)	16.7 µM (inactive)	18.4 µM (inactive)	19.1 µM (inactive)	19.5 µM (inactive)	15.3 µM (inactive)	18.7 µM (inactive)	15.5 µM (inactive)	11 µM (inactive)	16.5 µM (inactive)	12.9 µM (inactive)	18.7 µM (inactive)	14.4 µM (inactive)	10.8 µM (inactive)	–	14.1 µM (inactive)	19.3 µM (inactive)	16.5 µM (inactive)	16.5 µM (inactive)	–	16.6 µM (inactive)
CC(C)(C)c1cc2c(O)c(c1)Cc1cc(C(C)(C)C)cc(c1O)Cc1cc(C(C)(C)C)cc(c1O)Cc1cc(C(C)(C)C)cc(c1O)Cc1cc(C(C)(C)C)cc(c1O)Cc1cc(C(C)(C)C)cc(c1O)Cc1cc(C(C)(C)C)cc(c1O)Cc1cc(C(C)(C)C)cc(c1O)C2	> 50 µM (inactive)	> 50 µM (inactive)	> 50 µM (inactive)	> 50 µM (inactive)	> 50 µM (inactive)	> 50 µM (inactive)	> 50 µM (inactive)	> 50 µM (inactive)	> 50 µM (inactive)	> 50 µM (inactive)	> 50 µM (inactive)	> 50 µM (inactive)	> 50 µM (inactive)	> 50 µM (inactive)	> 50 µM (inactive)	> 50 µM (inactive)	> 50 µM (inactive)	> 50 µM (inactive)	–	> 50 µM (inactive)
Cc1c(O)c(C)c2c(C)cn(C(=O)C(C)(C)C)c2c1C	34.1 µM (inactive)	–	29.5 µM (inactive)	16.7 µM (inactive)	14.2 µM (inactive)	31.4 µM (inactive)	17.5 µM (inactive)	0.0201 µM (active)	17.8 µM (inactive)	12.1 µM (inactive)	20.5 µM (inactive)	43.4 µM (inactive)	28.4 µM (inactive)	23.7 µM (inactive)	27.3 µM (inactive)	23 µM (inactive)	14 µM (inactive)	19.8 µM (inactive)	–	15.3 µM (inactive)
C/C=C/C[C@@H](C)[C@@H](O)[C@H]1C(=O)N[C@@H](CC)C(=O)N(C)CC(=O)N(C)[C@@H](CC(C)C)C(=O)N[C@@H](C(C)C)C(=O)N(C)[C@@H](CC(C)C)C(=O)N[C@@H](C)C(=O)N[C@H](C)C(=O)N(C)[C@@H](CC(C)C)C(=O)N(C)[C@@H](CC(C)C)C(=O)N(C)[C@@H](C(C)C)C(=O)N1C [CYCLOSPORINE]	–	2.05 µM (inactive)	11.2 µM (inactive)	2.61 µM (inactive)	5.5 µM (inactive)	7.26 µM (inactive)	3.91 µM (inactive)	7.21 µM (inactive)	2.79 µM (inactive)	4.39 µM (inactive)	7.82 µM (inactive)	3.8 µM (inactive)	–	5.48 µM (inactive)	7.66 µM (inactive)	2.98 µM (inactive)	5.94 µM (inactive)	3.08 µM (inactive)	–	5.68 µM (inactive)
CC(C)(C)OC(=O)N1NC(c2ccccc2)CC1c1ccccc1 (stereo not given)	20.2 µM (inactive)	43.7 µM (inactive)	45 µM (inactive)	16.3 µM (inactive)	28.1 µM (inactive)	65.2 µM (inactive)	50.8 µM (inactive)	17.1 µM (inactive)	33.6 µM (inactive)	29.1 µM (inactive)	37.3 µM (inactive)	34.8 µM (inactive)	36.6 µM (inactive)	31.6 µM (inactive)	–	24.8 µM (inactive)	20.7 µM (inactive)	19 µM (inactive)	–	–
Oc1c(-c2ccccc2)nc2ccccn12	–	> 100 µM (inactive)	> 100 µM (inactive)	> 100 µM (inactive)	> 100 µM (inactive)	> 100 µM (inactive)	> 100 µM (inactive)	> 100 µM (inactive)	> 100 µM (inactive)	> 100 µM (inactive)	> 100 µM (inactive)	> 100 µM (inactive)	–	> 100 µM (inactive)	> 100 µM (inactive)	> 100 µM (inactive)	> 100 µM (inactive)	> 100 µM (inactive)	–	> 100 µM (inactive)
O=C(/C=C/c1ccc(OCC(=O)N2CCN(c3ccccc3)CC2)cc1)c1ccccc1	–	17.1 µM (inactive)	3.13 µM (inactive)	29.8 µM (inactive)	19.7 µM (inactive)	26.7 µM (inactive)	32.8 µM (inactive)	17.9 µM (inactive)	23.3 µM (inactive)	16.9 µM (inactive)	45.7 µM (inactive)	13.2 µM (inactive)	–	3.6 µM (inactive)	7.14 µM (inactive)	3.05 µM (inactive)	4.52 µM (inactive)	2.84 µM (inactive)	–	16 µM (inactive)
CCOC(=O)[C@@]1(C)C=C2O[C@@H]3OC4(CCCCC4)O[C@@H]3C2=C2C(O)=CC=C(O)[C@]21C(=O)OC	–	> 68.1 µM (inactive)	> 68.1 µM (inactive)	20.7 µM (inactive)	> 68.1 µM (inactive)	> 68.1 µM (inactive)	> 68.1 µM (inactive)	> 68.1 µM (inactive)	> 68.1 µM (inactive)	> 68.1 µM (inactive)	> 68.1 µM (inactive)	> 68.1 µM (inactive)	–	> 68.1 µM (inactive)	> 68.1 µM (inactive)	33.7 µM (inactive)	> 68.1 µM (inactive)	> 68.1 µM (inactive)	–	> 68.1 µM (inactive)
CCCCCCCCCC(=O)CC(=O)c1c(O)cccc1O	–	38.2 µM (inactive)	28.8 µM (inactive)	22 µM (inactive)	27.4 µM (inactive)	33.8 µM (inactive)	85.7 µM (inactive)	28 µM (inactive)	34.1 µM (inactive)	25.9 µM (inactive)	41.8 µM (inactive)	29.2 µM (inactive)	–	27.8 µM (inactive)	24.9 µM (inactive)	31 µM (inactive)	35.1 µM (inactive)	27.4 µM (inactive)	–	62.7 µM (inactive)
